According to paper PMC8688152, “Distinct classes of potassium channels fused to GPCRs as electrical signaling biosensors” (Cell Reports Methods, 2021):

Columns and labels:
mTREK-1 −43 = target: T1, mTREK-1 −43 (Mus musculus, UniProt P97438); assay: TEVC control: unfused N-terminally truncated mTREK-1 −43; format: cell-based; conditions: 10 μM BL1249, TEVC
T1 construct: expressed in transfected cells; host or cells: Xenopus oocytes (mRNA injection); gene synthesized by GeneCust
Description: (§1) Microelectrodes were filled with […]. […] The membrane voltage was clamped to −50 mV.

M2_T-00-43 [1] = target: T2, M2_T-00-43 (UniProt P08172+P97438); assay: Whole-cell patch-clamp on HEK293 cells expressing M2_T-00-43; format: cell-based, human (M2), mouse (TREK-1); design: expressed in transfected cells; host or cells: HEK293 (pIRES2-eGFP vector)
T2 sequence (P08172+P97438 with tags, fused parts or gaps): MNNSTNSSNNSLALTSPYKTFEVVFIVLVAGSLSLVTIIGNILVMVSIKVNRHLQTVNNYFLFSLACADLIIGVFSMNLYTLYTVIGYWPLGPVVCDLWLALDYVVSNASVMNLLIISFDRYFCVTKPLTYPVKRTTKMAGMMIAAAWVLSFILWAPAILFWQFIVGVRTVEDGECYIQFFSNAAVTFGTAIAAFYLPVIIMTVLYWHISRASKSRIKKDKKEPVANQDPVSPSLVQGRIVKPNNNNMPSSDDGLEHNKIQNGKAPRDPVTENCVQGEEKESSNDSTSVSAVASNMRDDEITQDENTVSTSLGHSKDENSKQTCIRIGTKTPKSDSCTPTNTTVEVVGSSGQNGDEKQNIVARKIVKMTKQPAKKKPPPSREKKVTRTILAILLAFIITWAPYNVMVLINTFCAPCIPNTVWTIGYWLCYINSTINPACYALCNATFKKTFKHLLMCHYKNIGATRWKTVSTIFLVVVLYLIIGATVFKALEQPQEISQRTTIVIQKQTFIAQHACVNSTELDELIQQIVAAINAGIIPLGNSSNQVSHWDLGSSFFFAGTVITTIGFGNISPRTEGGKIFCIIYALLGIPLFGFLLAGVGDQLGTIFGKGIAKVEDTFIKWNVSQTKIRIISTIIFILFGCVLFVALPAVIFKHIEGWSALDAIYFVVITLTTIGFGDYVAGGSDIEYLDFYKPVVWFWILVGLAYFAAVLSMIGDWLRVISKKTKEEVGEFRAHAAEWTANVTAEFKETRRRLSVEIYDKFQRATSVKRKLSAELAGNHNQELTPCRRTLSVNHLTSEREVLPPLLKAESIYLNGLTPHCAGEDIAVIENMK
Description: HEK293 cells were grown in 75-mm tissue-culture dishes (Falcon, Franklin Lakes, NJ) in Dulbecco’s modified Eagle’s medium (Gibco, Life Technologies, Saint Aubin, France) supplemented with 10% fetal calf serum (Hyclone, Thermo Fisher Scientific GMBH, Ulm, Germany) and 1% penicillin/streptomycin (Gibco, Life Technologies, Saint Aubin, France) in a humidified incubator at 37 °C (5% CO2). For electrophysiology of ICCRs, […] of plasmid was transfected using Jet-PEI (PolyPlus Transfection, Illkirch FRANCE) according to the manufacturer’s instructions. Cells were plated onto 35-mm dishes 24 h before transfection, and experiments were performed over the following 1–2 days.
Pipettes were pulled from hematocrit-capillaries (Hirschmann Laborgeraete, Germany) using a vertical puller (PC-10, Narishige International, London, United Kingdom), and had resistances of 3–6 MΩ when filled with internal solution and measured in standard bath solution. Whole cell membrane currents were measured and filtered at 3 kHz by a MultiClamp 700A patch clamp amplifier (Molecular Devices), and digitized at 10 kHz using a 12-bit analog-to-digital converter Digidata-1322A (Axon Instrument, Sunnyvale, CA, United States). Recordings were done using Clampex 9 software (Axon Instrument). […]

M2_Kcv-09-03 = target: T3, M2_Kcv-09-03 (UniProt P08172+Q84568); assay: TEVC recording of M2_Kcv-09-03 ICCR expressed in Xenopus oocytes; format: cell-based, human (M2), Paramecium bursaria chlorella virus 1 (Kcv)
T3 construct: expressed in transfected cells; host or cells: Xenopus oocytes (mRNA injection)
T3 sequence (P08172+Q84568 with tags, fused parts or gaps): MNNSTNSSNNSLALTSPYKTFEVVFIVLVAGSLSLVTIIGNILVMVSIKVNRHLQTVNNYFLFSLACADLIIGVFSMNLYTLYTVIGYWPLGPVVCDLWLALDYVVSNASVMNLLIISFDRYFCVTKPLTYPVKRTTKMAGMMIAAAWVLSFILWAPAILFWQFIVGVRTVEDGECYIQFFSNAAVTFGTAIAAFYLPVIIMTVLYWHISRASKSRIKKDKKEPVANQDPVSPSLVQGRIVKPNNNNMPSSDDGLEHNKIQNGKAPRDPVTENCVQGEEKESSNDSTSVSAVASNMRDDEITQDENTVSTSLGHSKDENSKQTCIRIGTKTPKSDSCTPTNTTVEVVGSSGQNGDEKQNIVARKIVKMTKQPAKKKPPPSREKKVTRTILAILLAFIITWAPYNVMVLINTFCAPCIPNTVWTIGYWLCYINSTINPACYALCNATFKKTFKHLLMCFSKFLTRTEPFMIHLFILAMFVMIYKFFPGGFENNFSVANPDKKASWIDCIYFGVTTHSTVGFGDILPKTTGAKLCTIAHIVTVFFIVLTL
Description: as §1

M2_Kir6.2-09-25 = test system: M2_Kir6.2-09-25; design: method as in Moreau et al., 2017; conditions: Kir6.2 ICCRs; ref Moreau et al., 2017; read-out: IC50 observed with Kir6.2 ICCRs; cited from earlier work
M2_T-00-43 [2] = target: T2, M2_T-00-43; assay: TEVC recording of M2_T-00-43 ICCR in Xenopus oocytes; format: cell-based, human (M2), mouse (TREK-1); design: full-length (−00) or M2 deleted of its last nine residues (−09) in the indicated ICCRs; expressed in transfected cells; host or cells: Xenopus oocytes (mRNA injection)
Description: (§2) Xenopus oocytes were prepared as previously reported ([Moreau et al., 2008]). Briefly, after surgical retrieval, the oocytes were defolliculated by type 1A collagenase. Each oocyte was injected with 50 nl of RNAse-free water containing the desired mRNAs. The mRNA quantities used per oocyte were: ICCR with Kcv, 2.7 ng (M2_Kcv and D2_Kcv) and 2.9 ng (OXTR_Kcv); ICCR with mTREK-1, 4.2 ng; ICCR with Kir6.2, 4.3 ng; M2, 2.3 ng; D2, 2.2 ng; Kir3.4T, 2.2 ng; Kcv 0.46 ng and mTREK-1, 2.1 ng. Microinjected oocytes were incubated 2 to 3 days at 19°C in modified-Barth's solution (in mM: 1 KCl, 0.82 MgSO4, 88 NaCl, 2.4 NaHCO3, 0.41 CaCl2, 16 HEPES, pH 7.4) supplemented with 100 U.ml^−1 of penicillin and streptomycin and 0.1 mg.mL^−1 of gentamycin. Animal handling and experiments fully conformed to European regulations and were approved by the French Ministry of Higher Education and Research (APAFIS#4420-2016030813053199 v4 to CM). Authorization of the animal facility has been delivered by the Prefect of Isere (Authorization #D 38 185 10 001).
(§3) Two-electrode voltage-clamp (TEVC) recordings were performed automatically with HiClamp robots (MultiChannel Systems). These TEVC robots rapidly change the applied solutions by transferring the oocytes in different wells of a 96-well plate. […] Microelectrodes were filled with […]. During recordings, oocytes were incubated in low potassium concentration buffer (ND96, in mM: 96 NaCl, 2 KCl, 1.8 CaCl2, 1 MgCl2, 5 HEPES, pH 7.4 supplemented with 0.3 niflumic acid), and in high potassium buffer (in mM: 91 KCl, 1.8 CaCl2, 1 MgCl2, 5 HEPES, 0.3 niflumic acid, pH 7.4). The membrane voltage was clamped to −50 mV. Ligands and BaCl2 were diluted in the high potassium buffer. […] Ligand effects were measured in high potassium concentration buffer with the membrane potential clamped to −50 mV and at 19°C.
(§4) Change of potassium current induced by ligand was calculated either with the barium-sensitive currents as a 0-reference for Kcv-based ICCRs or with the currents in ND96 for mTREK-1 ICCRs. Softwares created by Michel Vivaudou ([Vivaudou, 2019]) were used to extract the raw data.

D2_T+09M2-43 = D2_T+09M2-43 (UniProt P14416+P97438); conditions: TEVC
Description: as §2, §3, §4

D2_T-00-43 = D2_T-00-43 (UniProt P14416+P97438); conditions: weak inhibition, mean ± SEM
Description: as §2, §3, §4

[3] = test system: Kir3.4T co-expressed with D2_Kcv-00-03; conditions: TEVC, Xenopus oocytes
Description: as §2, §3, §4

[4] = target: unfused D2L and mTREK-1 (D2+mTREK-1) (Homo sapiens, UniProt P14416); conditions: control with co-expression of the unfused proteins, mean ± SEM
Description: as §2, §3, §4

D2_K+09M2-25 = conditions: read-out: EC50 on the equivalent Kir6.2 ICCR (D2_K+09M2-25); ref Moreau et al., 2008; cited from earlier work
OXTR[T4L]_Kcv-42-03 = assay: TEVC recording of OXTR[T4L]_Kcv-42-03 in Xenopus oocytes; format: cell-based, human (OXTR), Paramecium bursaria chlorella virus 1 (Kcv)
Description: as §2, with “Authorization of the animal facility has been delivered by the Prefect of Isere (Authorization #D 38 185 10 001).” left out
Two-electrode voltage-clamp (TEVC) recordings were performed automatically with HiClamp robots (MultiChannel Systems). […] Ligand effects were measured in high potassium concentration buffer with the membrane potential clamped to −50 mV and at 19°C.
Change of potassium current induced by ligand was calculated either with the barium-sensitive currents as a 0-reference for Kcv-based ICCRs or with the currents in ND96 for mTREK-1 ICCRs. […]

[5] = concentration-effect curve, TEVC

Chain of D2_T+09M2-43 (P14416+P97438 fused): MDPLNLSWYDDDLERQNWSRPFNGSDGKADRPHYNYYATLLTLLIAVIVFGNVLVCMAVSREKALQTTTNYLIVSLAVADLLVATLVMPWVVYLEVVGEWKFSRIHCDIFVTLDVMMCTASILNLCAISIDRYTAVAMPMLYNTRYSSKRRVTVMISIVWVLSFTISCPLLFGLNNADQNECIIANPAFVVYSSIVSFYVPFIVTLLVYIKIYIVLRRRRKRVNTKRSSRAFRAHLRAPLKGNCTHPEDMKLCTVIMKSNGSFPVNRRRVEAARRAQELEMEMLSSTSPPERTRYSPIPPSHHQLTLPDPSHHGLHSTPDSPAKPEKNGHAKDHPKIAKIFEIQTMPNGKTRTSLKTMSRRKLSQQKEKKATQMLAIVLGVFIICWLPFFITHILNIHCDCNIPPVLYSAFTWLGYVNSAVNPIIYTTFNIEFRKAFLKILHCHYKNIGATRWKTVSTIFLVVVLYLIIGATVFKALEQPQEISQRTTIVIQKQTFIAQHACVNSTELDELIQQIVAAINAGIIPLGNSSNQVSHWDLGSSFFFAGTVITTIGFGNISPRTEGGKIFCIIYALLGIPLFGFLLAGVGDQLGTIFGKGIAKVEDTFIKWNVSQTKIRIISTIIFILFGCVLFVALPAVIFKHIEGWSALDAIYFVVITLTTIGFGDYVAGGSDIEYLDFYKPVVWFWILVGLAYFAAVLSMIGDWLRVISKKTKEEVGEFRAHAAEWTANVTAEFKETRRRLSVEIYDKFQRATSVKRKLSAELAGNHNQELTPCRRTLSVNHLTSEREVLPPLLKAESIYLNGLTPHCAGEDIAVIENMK
Chain of unfused D2L and mTREK-1 (D2+mTREK-1) (P14416 whole entry, the tested form may be a part): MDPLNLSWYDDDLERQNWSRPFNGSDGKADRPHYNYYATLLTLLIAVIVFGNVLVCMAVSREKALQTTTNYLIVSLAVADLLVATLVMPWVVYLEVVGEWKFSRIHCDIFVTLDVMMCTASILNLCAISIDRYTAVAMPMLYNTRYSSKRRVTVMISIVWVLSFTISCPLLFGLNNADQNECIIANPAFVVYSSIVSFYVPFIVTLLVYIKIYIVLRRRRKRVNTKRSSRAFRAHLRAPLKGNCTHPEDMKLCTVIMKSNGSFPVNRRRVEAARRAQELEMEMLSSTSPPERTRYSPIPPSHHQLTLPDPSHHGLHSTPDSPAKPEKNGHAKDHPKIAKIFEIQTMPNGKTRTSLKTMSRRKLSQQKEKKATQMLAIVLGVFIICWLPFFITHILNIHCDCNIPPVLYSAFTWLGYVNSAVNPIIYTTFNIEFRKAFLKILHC
Chain of D2_T-00-43 (P14416+P97438 fused): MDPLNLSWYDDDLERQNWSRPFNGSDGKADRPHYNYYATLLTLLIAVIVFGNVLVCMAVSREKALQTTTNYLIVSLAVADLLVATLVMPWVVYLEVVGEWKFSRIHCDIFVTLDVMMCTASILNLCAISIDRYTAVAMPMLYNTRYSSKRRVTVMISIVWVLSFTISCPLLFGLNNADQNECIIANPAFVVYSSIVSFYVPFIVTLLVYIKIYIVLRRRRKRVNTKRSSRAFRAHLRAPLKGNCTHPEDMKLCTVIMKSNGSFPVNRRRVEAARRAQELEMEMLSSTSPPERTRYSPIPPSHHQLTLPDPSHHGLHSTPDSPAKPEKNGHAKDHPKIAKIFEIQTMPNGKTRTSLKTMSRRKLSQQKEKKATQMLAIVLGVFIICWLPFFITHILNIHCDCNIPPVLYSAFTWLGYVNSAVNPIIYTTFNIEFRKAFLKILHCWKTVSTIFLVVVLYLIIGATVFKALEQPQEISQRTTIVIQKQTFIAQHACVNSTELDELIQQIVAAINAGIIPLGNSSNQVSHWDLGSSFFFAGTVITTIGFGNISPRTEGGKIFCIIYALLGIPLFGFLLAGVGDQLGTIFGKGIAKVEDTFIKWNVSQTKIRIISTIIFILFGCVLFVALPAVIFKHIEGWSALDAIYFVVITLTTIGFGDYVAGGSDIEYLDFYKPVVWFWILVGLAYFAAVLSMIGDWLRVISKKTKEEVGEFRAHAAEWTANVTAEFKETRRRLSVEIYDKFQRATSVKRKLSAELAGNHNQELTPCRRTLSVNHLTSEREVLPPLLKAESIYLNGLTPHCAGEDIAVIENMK

Molecule: c1ccc(-c2nn[nH]n2)c(Nc2cccc3c2CCCC3)c1 [BL1249]
- activation of unfused truncated mTREK-1 −43 by BL1249, compared with WT channel (mTREK-1 −43): lower activation
- activation of M2_T-00-43: increase of the current (M2_T-00-43 [1]; 10 μM BL1249, mean ± SEM): 880% ± 190%

Molecule: C[N+](C)(C)CCOC(N)=O [CCh, carbachol]
- Hill coefficient (nH) on M2_Kcv-09-03 (M2_Kcv-09-03; [5]): 0.98
- IC50 (M2_Kir6.2-09-25): 1200 nM
- Hill coefficient (nH) on M2_T-00-43 (M2_T-00-43 [2]; [5]): 0.97

Molecule: CN1[C@@H]2CC[C@H]1C[C@@H](OC(=O)C(CO)c1ccccc1)C2 (stereo partly drawn) [atropine]
- effect of atropine co-application on the ACh response of M2_Kcv-09-03 (M2_Kcv-09-03; 1 μM atropine co-applied with ACh 5 μM): almost entirely abolished the ACh response
- effect of atropine co-application on ACh-induced activation of M2_T-00-43 (M2_T-00-43 [2]): inhibited ACh-induced activation

Molecule: NCCc1ccc(O)c(O)c1 [dopamine]
- activation: % of current change induced by 5 μM dopamine on D2_T+09M2-43 (D2_T+09M2-43; 5 μM, Xenopus oocytes, mean ± SEM): 12.1% ± 1.7%
- Hill coefficient (nH) on D2_T+09M2-43 (D2_T+09M2-43; concentration-effect curve): 0.76
- % of current change induced by 5 μM dopamine on D2_T-00-43 (D2_T-00-43): −4.1% ± 0.6%
- G protein activation (Kir3.4T) by D2_Kcv-00-03 upon dopamine application [3]: triggers the activation of the endogenous Gi/o proteins
- % of current change induced by 5 μM dopamine on unfused D2 + mTREK-1 [4]: −2.2% ± 1.3%
- EC50 (D2_K+09M2-25): 400 nM

Molecule: oxytocin
- response of OXTR[T4L]_Kcv-42-03 to oxytocin (OXTR[T4L]_Kcv-42-03): did not induce any response

Molecule: spadin
- inhibition of BL1249 activation of M2_T-00-43 (M2_T-00-43 [1]; 1 μM spadin with 10 μM BL1249, mean ± SEM): 56.8% ± 9.1%
